Reference: patent US11987586B1 (TAKEDA PHARMACEUTICAL COMPANY LIMITED, priority 2022, dated 2024)

molecular target: T1, human OX2 receptor (Homo sapiens, UniProt O43614); assay: Measurement of orexin type 2 receptor agonist activity (calcium fluorescence, Fluo-4, FDSS); format: cell-based; settings: 3 uM test compound; CHO cells expressing human OX2 receptor; DMSO = 0%, 10 nM orexin A (human) = 100%
T1 construct: expressed in transfected cells
T1 sequence (O43614 1-444): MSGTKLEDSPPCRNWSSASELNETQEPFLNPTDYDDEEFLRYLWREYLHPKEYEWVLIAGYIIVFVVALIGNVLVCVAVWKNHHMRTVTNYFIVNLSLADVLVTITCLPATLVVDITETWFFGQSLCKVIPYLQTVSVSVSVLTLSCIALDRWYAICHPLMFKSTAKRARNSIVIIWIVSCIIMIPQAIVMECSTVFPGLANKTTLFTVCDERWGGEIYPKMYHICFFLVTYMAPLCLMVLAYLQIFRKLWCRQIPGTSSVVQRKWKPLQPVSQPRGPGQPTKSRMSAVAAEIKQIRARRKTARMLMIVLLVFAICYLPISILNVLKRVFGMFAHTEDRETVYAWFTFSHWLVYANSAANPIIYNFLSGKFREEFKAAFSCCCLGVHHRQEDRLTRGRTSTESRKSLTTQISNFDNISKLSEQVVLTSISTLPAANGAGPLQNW
Summary of the method: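 Agonist activity (%) was normalised to the response to 10 nM final human orexin A (100%) and to the DMSO vehicle (0%). The response was measured as the Fluo-4 calcium signal, read kinetically over 1 min 40 s after compound addition to Fluo-4/probenecid-loaded stable CHO-K1 clones expressing human OX2 (aa 1-444).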

Going from CS(=O)(=O)N[C@@H]1Cn2c(cn(-c3noc4nc(C5CC5)cc(-c5c(F)cccc5F)c34)c2=O)C1(F)F [Example 197, N-{(6R)-2-[6-cyclopropyl-4-(2,6-difluorophenyl)[1,2]oxazolo[5,4-b]pyridin-3-yl]-7,7-difluoro-3-oxo-2,5,6,7-tetrahydro-3H-pyrrolo[1,2-c]imidazol-6-yl}methanesulfonamide] to CCS(=O)(=O)N[C@@H]1Cn2c(cn(-c3noc4nc(C5CC5)cc(-c5c(F)cccc5F)c34)c2=O)C1(F)F [Example 211, N-{(6R)-2-[6-cyclopropyl-4-(2,6-difluorophenyl)[1,2]oxazolo[5,4-b]pyridin-3-yl]-7,7-difluoro-3-oxo-2,5,6,7-tetrahydro-3H-pyrrolo[1,2-c]imidazol-6-yl}ethanesulfonamide], the “OX2R agonist activity (3 uM, %)” value falls from 115% to 108%.

First: CCS(=O)(=O)N[C@@H]1Cn2c(cn(-c3noc4cc(C)nc(-c5c(F)cc(F)cc5F)c34)c2=O)C1(F)F [Example 198, N-{(6R)-7,7-difluoro-2-[6-methyl-4-(2,4,6-trifluorophenyl)[1,2]oxazolo[4,5-c]pyridin-3-yl]-3-oxo-2,5,6,7-tetrahydro-3H-pyrrolo[1,2-c]imidazol-6-yl}ethanesulfonamide]
Second: Cc1cc2onc(-n3cc4n(c3=O)C[C@@H](NS(=O)(=O)CF)C4(F)F)c2c(-c2c(F)cc(F)cc2F)n1 [Example 201, N-{(6R)-7,7-difluoro-2-[6-methyl-4-(2,4,6-trifluorophenyl)[1,2]oxazolo[4,5-c]pyridin-3-yl]-3-oxo-2,5,6,7-tetrahydro-3H-pyrrolo[1,2-c]imidazol-6-yl}-1-fluoromethanesulfonamide]
The “OX2R agonist activity (3 uM, %)” value of the first is lower: 112% for the first, 114% for the second.

First: CCOc1cc(-c2c(F)cccc2F)c2c(N3CC[C@H]4N(C[C@@H](NS(C)(=O)=O)C4(F)F)C3=O)noc2c1 [Example 199, N-{(4aR,6R)-2-[4-(2,6-difluorophenyl)-6-ethoxy-1,2-benzoxazol-3-yl]-5,5-difluoro-1-oxooctahydropyrrolo[1,2-c]pyrimidin-6-yl}methanesulfonamide]
Second: Cc1cc(-c2c(F)cccc2F)c2c(N3CC[C@H]4N(C[C@@H](NS(C)(=O)=O)C4(F)F)C3=O)noc2c1 [Example 209, N-{(4aR,6R)-2-[4-(2,6-difluorophenyl)-6-methyl-1,2-benzoxazol-3-yl]-5,5-difluoro-1-oxooctahydropyrrolo[1,2-c]pyrimidin-6-yl}methanesulfonamide]
The “OX2R agonist activity (3 uM, %)” value of the first is higher: 105% for the first, 96% for the second.

Compared with CS(=O)(=O)N[C@@H]1CN2C(=O)N(c3noc4cc(C(F)F)cc(-c5c(F)cc(F)cc5F)c34)CC[C@@H]2C1(F)F [Example 200, N-{(4aR,6R)-2-[6-(difluoromethyl)-4-(2,4,6-trifluorophenyl)-1,2-benzoxazol-3-yl]-5,5-difluoro-1-oxooctahydropyrrolo[1,2-c]pyrimidin-6-yl}methanesulfonamide], CS(=O)(=O)N[C@@H]1CN2C(=O)N(c3noc4cc(F)cc(-c5c(F)cc(F)cc5F)c34)CC[C@@H]2C1(F)F [Example 208, N-{(4aR,6R)-5,5-difluoro-2-[6-fluoro-4-(2,4,6-trifluorophenyl)-1,2-benzoxazol-3-yl]-1-oxooctahydropyrrolo[1,2-c]pyrimidin-6-yl}methanesulfonamide] is lower in “OX2R agonist activity (3 uM, %)” value: 122% for the first, 102% for the second.

Compared with CCOc1cc2onc(N3CC[C@H]4N(C[C@@H](NS(C)(=O)=O)C4(F)F)C3=O)c2c(-c2c(F)cc(F)cc2F)c1F [Example 202, N-{(4aR,6R)-2-[6-ethoxy-5-fluoro-4-(2,4,6-trifluorophenyl)-1,2-benzoxazol-3-yl]-5,5-difluoro-1-oxooctahydropyrrolo[1,2-c]pyrimidin-6-yl}methanesulfonamide], CCOc1cc(-c2c(F)cc(F)cc2F)c2c(N3CC[C@H]4N(C[C@@H](NS(C)(=O)=O)C4(F)F)C3=O)noc2c1 [Example 217, N-{(4aR,6R)-2-[6-ethoxy-4-(2,4,6-trifluorophenyl)-1,2-benzoxazol-3-yl]-5,5-difluoro-1-oxooctahydropyrrolo[1,2-c]pyrimidin-6-yl}methanesulfonamide] is higher in “OX2R agonist activity (3 uM, %)” value: 99% for the first, 104% for the second.

Compared with O=C1N(c2noc3cccc(-c4c(F)cc(F)cc4F)c23)CC[C@H]2N1C[C@@H](NS(=O)(=O)CF)C2(F)F [Example 203, N-{(4aR,6R)-5,5-difluoro-1-oxo-2-[4-(2,4,6-trifluorophenyl)-1,2-benzoxazol-3-yl]octahydropyrrolo[1,2-c]pyrimidin-6-yl}-1-fluoromethanesulfonamide], O=C1N(c2noc3ccc(F)c(-c4c(F)cc(F)cc4F)c23)CC[C@H]2N1C[C@@H](NS(=O)(=O)CF)C2(F)F [Example 207, N-{(4aR,6R)-5,5-difluoro-2-[5-fluoro-4-(2,4,6-trifluorophenyl)-1,2-benzoxazol-3-yl]-1-oxooctahydropyrrolo[1,2-c]pyrimidin-6-yl}-1-fluoromethanesulfonamide] is lower in “OX2R agonist activity (3 uM, %)” value: 114% for the first, 113% for the second.

Compared with CCS(=O)(=O)N[C@@H]1CN2C(=O)N(c3noc4ccc(F)c(-c5c(F)cc(F)cc5F)c34)CC[C@@H]2C1(F)F [Example 204, N-{(4aR,6R)-5,5-difluoro-2-[5-fluoro-4-(2,4,6-trifluorophenyl)-1,2-benzoxazol-3-yl]-1-oxooctahydropyrrolo[1,2-c]pyrimidin-6-yl}ethanesulfonamide], CCS(=O)(=O)N[C@@H]1CN2C(=O)N(c3noc4cc(C)nc(-c5c(F)cc(F)cc5F)c34)CC[C@@H]2C1(F)F [Example 220, N-{(4aR,6R)-5,5-difluoro-2-[6-methyl-4-(2,4,6-trifluorophenyl)[1,2]oxazolo[4,5-c]pyridin-3-yl]-1-oxooctahydropyrrolo[1,2-c]pyrimidin-6-yl}ethanesulfonamide] is higher in “OX2R agonist activity (3 uM, %)” value: 109% for the first, 112% for the second.

Compared with CCS(=O)(=O)N[C@H]1C[C@H]2CCN(c3noc4cccc(-c5c(F)cc(F)cc5F)c34)C(=O)N2C1 [Example 205, N-{(4aR,6S)-1-oxo-2-[4-(2,4,6-trifluorophenyl)-1,2-benzoxazol-3-yl]octahydropyrrolo[1,2-c]pyrimidin-6-yl}ethanesulfonamide], CS(=O)(=O)N[C@@H]1CN2C(=O)N(c3noc4cccc(-c5c(F)cccc5F)c34)CC[C@@H]2C1(F)F [Example 206, N-{(4aR,6R)-2-[4-(2,6-difluorophenyl)-1,2-benzoxazol-3-yl]-5,5-difluoro-1-oxooctahydropyrrolo[1,2-c]pyrimidin-6-yl}methanesulfonamide] is higher in “OX2R agonist activity (3 uM, %)” value: 107% for the first, 110% for the second.

Going from COCc1cc(-c2c(F)cc(F)cc2F)c2c(N3CC[C@H]4N(C[C@@H](NS(C)(=O)=O)C4(F)F)C3=O)noc2c1 [Example 210, N-{(4aR,6R)-5,5-difluoro-2-[6-(methoxymethyl)-4-(2,4,6-trifluorophenyl)-1,2-benzoxazol-3-yl]-1-oxooctahydropyrrolo[1,2-c]pyrimidin-6-yl}methanesulfonamide] to COCc1cc(-c2c(F)cccc2F)c2c(N3CC[C@H]4N(C[C@@H](NS(C)(=O)=O)C4(F)F)C3=O)noc2c1 [Example 215, N-{(4aR,6R)-2-[4-(2,6-difluorophenyl)-6-(methoxymethyl)-1,2-benzoxazol-3-yl]-5,5-difluoro-1-oxooctahydropyrrolo[1,2-c]pyrimidin-6-yl}methanesulfonamide], the “OX2R agonist activity (3 uM, %)” value rises from 94% to 99%.

Compared with CCS(=O)(=O)N[C@@H]1Cn2c(cn(-c3noc4cc(COC)c(F)c(-c5c(F)cccc5F)c34)c2=O)C1(F)F [Example 212, N-{(6R)-2-[4-(2,6-difluorophenyl)-5-fluoro-6-(methoxymethyl)-1,2-benzoxazol-3-yl]-7,7-difluoro-3-oxo-2,5,6,7-tetrahydro-3H-pyrrolo[1,2-c]imidazol-6-yl}ethanesulfonamide], CCS(=O)(=O)N[C@@H]1CN2C(=O)N(c3noc4cc(COC)c(F)c(-c5c(F)cccc5F)c34)CC[C@@H]2C1(F)F [Example 221, N-{(4aR,6R)-2-[4-(2,6-difluorophenyl)-5-fluoro-6-(methoxymethyl)-1,2-benzoxazol-3-yl]-5,5-difluoro-1-oxooctahydropyrrolo[1,2-c]pyrimidin-6-yl}ethanesulfonamide] is higher in “OX2R agonist activity (3 uM, %)” value: 100% for the first, 104% for the second.

Compared with Cc1cc2onc(-n3cc4n(c3=O)C[C@@H](NS(=O)(=O)N(C)C)C4(F)F)c2c(-c2c(F)cc(F)cc2F)n1 [Example 218, N′-{(6R)-7,7-difluoro-2-[6-methyl-4-(2,4,6-trifluorophenyl)[1,2]oxazolo[4,5-c]pyridin-3-yl]-3-oxo-2,5,6,7-tetrahydro-3H-pyrrolo[1,2-c]imidazol-6-yl}-N,N-dimethylsulfuric diamide], Cc1cc2onc(-n3cc4n(c3=O)C[C@@H](NS(=O)(=O)C3CC3)C4(F)F)c2c(-c2c(F)cc(F)cc2F)n1 [Example 219, N-{(6R)-7,7-difluoro-2-[6-methyl-4-(2,4,6-trifluorophenyl)[1,2]oxazolo[4,5-c]pyridin-3-yl]-3-oxo-2,5,6,7-tetrahydro-3H-pyrrolo[1,2-c]imidazol-6-yl}cyclopropanesulfonamide] is lower in “OX2R agonist activity (3 uM, %)” value: 108% for the first, 103% for the second.
